Reference: US20230265118A1, “SALT OF CURCUMIN MONOGLUCURONIDE” (THERABIOPHARMA INC., priority 2020, published 2023)

Tests used:
[1] = Stability in water-methanol solution (residual ratio by HPLC); assay type: physicochemical; settings: for Residual Ratio: dissolved in 15 mL water-methanol (1:1), left at room temperature for 35 days, HPLC; for Half-Life: solution in water-methanol (1:1), room temperature
Description: A curcumin monoglucuronic acid conjugate (3.62 mg) and a sodium salt of the curcumin monoglucuronic acid conjugate (3.44 mg) were each dissolved in 15 mL of water-methanol (1:1). The prepared solution was left at room temperature for 35 days, and a residual ratio was determined by HPLC.

[2] = Solubility in distilled water; assay type: physicochemical; settings: 100 mg in 1 mL of distilled water

| Structure (SMILES) | Residual Ratio [1] | Half-Life [1] | Solubility in distilled water [2] |
| --- | --- | --- | --- |
| COc1cc(/C=C/C(=O)CC(=O)/C=C/c2ccc(O[C@@H]3O[C@H](C(=O)O)[C@@H](O)[C@H](O)[C@H]3O)c(OC)c2)ccc1O [curcumin monoglucuronic acid conjugate, curcumin monoglucuronide] | 80.8% | 126.1 days | hardly dissolved |
| COc1cc(/C=C/C(=O)CC(=O)/C=C/c2ccc(O[C@@H]3O[C@H](C(=O)[O-])[C@@H](O)[C@H](O)[C@H]3O)c(OC)c2)ccc1O.[Na+] [sodium(2S,3S,4S,5R,6S)-3,4,5-trihydroxy-6-(4-((1E,6E)-7-(4-hydroxy-3-methoxyphenyl)-3,5-dioxohepta-1,6-dien-1-yl)-2-methoxyphenoxy)tetrahydro-2H-pyran-2-carboxylate] | 93.8% | 378.4 days | > 100 mg/mL |
